# US20250361241A1, “HPK1 INHIBITOR AND MEDICAL USE THEREOF” (Betta Pharmaceuticals Co., Ltd., priority 2022, published 2025)
# What was measured:
# HPK1 = HPK1 (Homo sapiens (Human), UniProt Q92918); assay: HPK1 enzyme activity detection (1 mM ATP system), ADP-Glo with MBP substrate, Pharmacological Experiment 2; type: biochemical
# Description: (§1) Pharmacological Experiment 2: […] The test compound was serially diluted using DMSO to 200 times the detection concentration. […] Centrifuge at 1000×g for 30 seconds and incubate at 25° C. for 15 minutes. • (5) Adding ATP and substrate: Add 2 μL of 2×ATP-MBP solution to the 384-well plate and centrifuge at 1000×g for 30 seconds. Seal the plate with a sealing film and incubate at 25° C. for 60 minutes. • (6) Add ADP-Glo reagent: Add 4 μL ADP-Glo reagent (Promega, V9103) to the 384-well plate, centrifuge at 1000×g for 30 seconds, and incubate at 25° C. for 60 minutes. • (7) Detection of luminescent signal; Add 8 μL of luminescent detection reagent (Promega, V9103) to a 384-well plate, centrifuge at 1000×g for 30 seconds, and incubate at 25° C. for 60 minutes. The chemiluminescent signal was read using a BMG instrument. • (8) Calculation of percentage inhibition rate: […] See Table 2 for the enzymatic IC 50 data of the example compounds on HPK1.
# GLK = GLK (Homo sapiens (Human), UniProt Q8IVH8); assay: GLK kinase assay (1 mM ATP system), ADP-Glo; type: biochemical
# Sequence of GLK (Q8IVH8 whole entry, species assumed): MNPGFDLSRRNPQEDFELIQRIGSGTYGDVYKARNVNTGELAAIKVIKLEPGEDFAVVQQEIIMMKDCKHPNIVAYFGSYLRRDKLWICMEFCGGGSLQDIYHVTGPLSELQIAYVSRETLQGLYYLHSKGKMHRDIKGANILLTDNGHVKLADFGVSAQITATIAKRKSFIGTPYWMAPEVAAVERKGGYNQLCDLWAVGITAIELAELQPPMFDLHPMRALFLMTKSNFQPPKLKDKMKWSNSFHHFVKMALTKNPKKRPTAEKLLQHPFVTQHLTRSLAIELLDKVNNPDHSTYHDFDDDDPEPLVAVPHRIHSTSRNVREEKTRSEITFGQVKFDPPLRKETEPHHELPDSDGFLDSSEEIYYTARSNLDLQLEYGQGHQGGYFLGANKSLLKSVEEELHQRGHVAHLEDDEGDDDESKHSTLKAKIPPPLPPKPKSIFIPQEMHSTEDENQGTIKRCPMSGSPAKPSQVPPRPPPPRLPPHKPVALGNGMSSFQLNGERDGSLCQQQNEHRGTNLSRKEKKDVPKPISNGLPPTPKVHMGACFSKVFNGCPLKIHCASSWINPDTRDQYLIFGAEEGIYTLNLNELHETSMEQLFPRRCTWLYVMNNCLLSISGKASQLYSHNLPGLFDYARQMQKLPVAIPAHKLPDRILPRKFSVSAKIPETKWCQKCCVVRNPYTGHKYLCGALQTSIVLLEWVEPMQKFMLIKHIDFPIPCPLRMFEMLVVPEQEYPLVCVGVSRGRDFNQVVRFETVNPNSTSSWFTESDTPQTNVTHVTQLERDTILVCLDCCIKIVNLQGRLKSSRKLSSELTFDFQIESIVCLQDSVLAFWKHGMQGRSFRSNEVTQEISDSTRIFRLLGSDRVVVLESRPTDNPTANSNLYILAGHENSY
# Description: as §1, with “Solution” for “Pharmacological Experiment 2:”, “Add” for “Adding”, “signal:” for “signal;”, “microplate reader.” for “instrument.”, “GLK kinase IC50” for “enzymatic IC 50”
# Sequence of HPK1 (Q92918 whole entry, species assumed): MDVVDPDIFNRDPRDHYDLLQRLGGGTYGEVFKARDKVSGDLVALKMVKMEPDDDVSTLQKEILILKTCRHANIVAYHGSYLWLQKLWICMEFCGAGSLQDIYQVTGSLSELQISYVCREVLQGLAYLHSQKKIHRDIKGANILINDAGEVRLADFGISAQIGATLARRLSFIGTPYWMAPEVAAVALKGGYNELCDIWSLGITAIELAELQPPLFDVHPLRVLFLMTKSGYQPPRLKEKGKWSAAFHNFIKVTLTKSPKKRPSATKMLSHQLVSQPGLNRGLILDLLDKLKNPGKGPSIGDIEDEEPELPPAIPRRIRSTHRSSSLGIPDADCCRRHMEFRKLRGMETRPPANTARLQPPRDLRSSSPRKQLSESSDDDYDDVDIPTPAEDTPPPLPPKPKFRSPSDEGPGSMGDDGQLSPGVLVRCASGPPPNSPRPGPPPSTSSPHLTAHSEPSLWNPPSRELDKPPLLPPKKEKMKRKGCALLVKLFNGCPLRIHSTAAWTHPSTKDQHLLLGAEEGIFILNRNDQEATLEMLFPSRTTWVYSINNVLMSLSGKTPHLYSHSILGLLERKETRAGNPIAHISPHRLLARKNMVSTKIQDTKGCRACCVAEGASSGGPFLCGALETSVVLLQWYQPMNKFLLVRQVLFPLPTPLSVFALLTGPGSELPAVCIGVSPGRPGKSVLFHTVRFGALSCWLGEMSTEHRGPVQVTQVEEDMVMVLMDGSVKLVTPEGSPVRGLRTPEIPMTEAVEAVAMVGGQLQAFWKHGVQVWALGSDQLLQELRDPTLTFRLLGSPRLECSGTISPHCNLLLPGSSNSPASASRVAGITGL
structure (smiles),measurement,setting,value
"CN(C)C1CC2(CCOCC2)c2ccc(Nc3ccc(-c4cnc5cc(F)c(Cl)cn45)c4c3C(=O)NC4)nc21 (stereo not drawn) [Compound 46, 4-(6-CHLORO-7-FLUOROIMIDAZO[1,2-A]PYRIDIN-3-YL)-7-((7-(DIMETHYLAMINO)-2′,3′,5′,6,6′,7-HEXAHYDRO SPIRO[B]PYRIDIN-5,4′-PYRAN]-2-YL)AMINO)ISOINDOLIN-1-ONE]",IC50,HPK1,11.8 nM
same,IC50,GLK,971 nM
"N#Cc1ccn2c(-c3ccc(Nc4ccc5c(n4)CCCC54CCOCC4)c4c3CNC4=O)cnc2c1 [Compound 146, 3-(7-((2,3,5,6,7′,8′-HEXAHYDRO-6′-H-SPIRO[PYRAN-4,5′-[1,7]NAPHTHYRIDINE]-2′-YL)AMINO)-1-OXOISOINDOL-4-YL)IMIDAZO[1,2-A]PYRIDINE-7-CARBONITRILE]",IC50,HPK1,4.33 nM
same,IC50,GLK,1230 nM
"O=C1NCc2c(-c3cnc4cc(F)ccn34)ccc(Nc3ccc4c(n3)C(N3CCOCC3)CC43CCOCC3)c21 (stereo not drawn) [Compound 59, 4-(7-FLUOROIMIDAZO[1,2-A]PYRIDIN-3-YL)-7-(7-MORPHOLIN-2′,3′,5′,6,6′,7-HEXAHYDROSPIRO[B]PYRIDIN-5,4′-PYRAN]-2-YL)AMINO)ISOINDOL-1-ONE]",IC50,HPK1,6.09 nM
same,IC50,GLK,> 30000 nM
O=C1NCc2c(-c3cnc4n3CCOC4)ccc(Nc3ccc4c(n3)CNCC43CCOCC3)c21 [Compound 153],IC50,HPK1,34.5 nM
same,IC50,GLK,2170 nM
CN(C)Cc1nc(Nc2ccc(-c3cnc4cc(F)ccn34)c3c2C(=O)NC3)cc2c1C1(CCOCC1)NC2 [Compound 55],IC50,HPK1,7.56 nM
same,IC50,GLK,2150 nM
CC(C)NC1CC2(CCOCC2)c2ccc(Nc3ccc(-c4cnc5cc(F)ccn45)c4c3C(=O)NC4)nc21 (stereo not drawn) [Compound 102],IC50,HPK1,7.42 nM
same,IC50,GLK,> 30000 nM
CC(C)N1Cc2nc(Nc3ccc(-c4cnc5cc(F)ccn45)c4c3C(=O)NC4)ccc2C2(CCOCC2)C1 [Compound 119],IC50,HPK1,29.8 nM
same,IC50,GLK,> 3000 nM
"O=C1NCc2c(-c3cnc4cc(OC(F)F)ccn34)ccc(Nc3ccc4c(n3)C(N3CCCC3)CC43CCOCC3)c21 (stereo not drawn) [Compound 169, 4-(7-(DIFLUOROMETHOXY)IMIDAZO[1,2-A]PYRIDIN-3-YL)-7-((7-(PYRROLIDIN-1-YL)-2′,3′,5′,6,6′,7-HEXAHYDROSPIRO[CYCLOPENTA[B]PYRIDINE-5,4′-PYRAN]-2-YL)AMINO)ISOINDOL-1-ONE]",IC50,HPK1,9.19 nM
same,IC50,GLK,223 nM
CCN1Cc2nc(Nc3ccc(-c4cnc5cc(F)ccn45)c4c3C(=O)NC4)ccc2C2(CCOCC2)C1 [Compound 124],IC50,HPK1,8.47 nM
same,IC50,GLK,2760 nM
COCCNC1CC2(CCOCC2)c2ccc(Nc3ccc(-c4cnc5cc(F)ccn45)c4c3C(=O)NC4)nc21 (stereo not drawn) [Compound 106],IC50,HPK1,3.46 nM
same,IC50,GLK,697 nM
O=C1NCc2c(-c3cnc4cc(F)ccn34)ccc(Nc3ccc4c(n3)C(N3CCC(F)(F)CC3)CC43CCOCC3)c21 (stereo not drawn) [Compound 98],IC50,HPK1,12.4 nM
same,IC50,GLK,> 30000 nM
O=C1NCc2c(-c3cnc4cc(F)ccn34)ccc(Nc3ccc4c(n3)C(N3CCC(F)CC3)CC43CCOCC3)c21 (stereo not drawn) [Compound 144],IC50,HPK1,7.42 nM
same,IC50,GLK,> 3000 nM
CN(C)C1CCC2(CCOCC2)c2ccc(Nc3ccc(-c4cnc5cc(F)ccn45)c4c3C(=O)NC4)nc21 (stereo not drawn) [Compound 3],IC50,HPK1,4.16 nM
same,IC50,GLK,2860 nM
CN1CCN(C2CC3(CCOCC3)c3ccc(Nc4ccc(-c5cnc6cc(F)ccn56)c5c4C(=O)NC5)nc32)CC1 (stereo not drawn) [Compound 91],IC50,HPK1,86.2 nM
same,IC50,GLK,> 30000 nM
"N#Cc1ccn2c(-c3ccc(Nc4ccc5c(n4)C(N4CCCC4)CC54CCOCC4)c4c3CNC4=O)cnc2c1 (stereo not drawn) [Compound 168, 3-(1-OXO-7-((7-(PYRROLIDIN-1-YL)-2′,3′,5′,6,6′,7-HEXAHYDROSPIRO[CYCLOPENTA[B]PYRIDINE-5,4′-PYRAN]-2-YL)AMINO)ISOINDOL-4-YL)IMIDAZO[1,2-A]PYRIDINE-7-CARBONITRILE]",IC50,HPK1,5.27 nM
same,IC50,GLK,289 nM
CN(C)C1CCC2(CCOCC2)c2ccc(Nc3ccc(-c4ccnc5c4ccn5C)c4c3C(=O)NC4)nc21 (stereo not drawn) [Compound 34],IC50,HPK1,8.18 nM
same,IC50,GLK,779 nM
"CN(C)C1CC2(CCOCC2)c2ccc(Nc3ccc(-c4cnc5cc(CO)ccn45)c4c3C(=O)NC4)nc21 (stereo not drawn) [Compound 41, 7-((7-(DIMETHYLAMINO)-2′,3′,5′,6,6′,7-HEXAHYDROSPIRO[B]PYRIDIN-5,4′-PYRAN]-2-YL)AMINO)-4-(7-(HYDROXYMETHYL)IMIDAZO[1,2-A]PYRIDIN-3-YL)ISOINDOL-1-ONE]",IC50,HPK1,3.76 nM
same,IC50,GLK,70.7 nM
COC1(C)CN(C2CC3(CCOCC3)c3ccc(Nc4ccc(-c5cnc6cc(F)ccn56)c5c4C(=O)NC5)nc32)C1 (stereo not drawn) [Compound 70],IC50,HPK1,2.99 nM
same,IC50,GLK,188 nM
CN(C)C1CCC2(CCOCC2)c2ccc(Nc3ccc(-c4cnn5ccccc45)c4c3C(=O)NC4)nc21 (stereo not drawn) [Compound 33],IC50,HPK1,4.76 nM
same,IC50,GLK,631 nM
CC(C)(C)NC1CC2(CCOCC2)c2ccc(Nc3ccc(-c4cnc5cc(F)ccn45)c4c3C(=O)NC4)nc21 (stereo not drawn) [Compound 101],IC50,HPK1,5.22 nM
same,IC50,GLK,858 nM
COC1(C)CCN(C2CC3(CCOCC3)c3ccc(Nc4ccc(-c5cnc6cc(F)ccn56)c5c4C(=O)NC5)nc32)CC1 (stereo not drawn) [Compound 94],IC50,HPK1,9.27 nM
same,IC50,GLK,4530 nM
O=C1NCc2c(-c3cnc4cc(F)ccn34)ccc(Nc3ccc4c(n3)C(N3C[C@H]5C[C@@H]3CO5)CC43CCOCC3)c21 (stereo partly drawn) [Compound 110],IC50,HPK1,2.67 nM
same,IC50,GLK,317 nM
CN(C)C1CC2(CCOCC2)c2ccc(Nc3ccc(-c4cnc5cc(Cl)ccn45)c4c3C(=O)NC4)nc21 (stereo not drawn) [Compound 42],IC50,HPK1,4.62 nM
same,IC50,GLK,119 nM
"CN(C)C1CC2(CCOCC2)c2ccc(Nc3ccc(-c4cnc5cc(C(F)F)ccn45)c4c3C(=O)NC4)nc21 (stereo not drawn) [Compound 160, 4-(7-(DIFLUOROMETHYL)IMIDAZO[1,2-A]PYRIDIN-3-YL)-7-((7-(METHYLAMINO)-2′,3′,5′,6,6′,7-HEXAHYDRO SPIRO[CYCLOPENTANE[B]PYRIDINE-5,4′-PYRAN]-2-YL)AMINO)ISOINDOL-1-ONE]",IC50,HPK1,6.57 nM
same,IC50,GLK,460 nM
CN(C)C1CCC2(CCOCC2)c2ccc(Nc3ccc(-c4cnn5cc(F)ccc45)c4c3C(=O)NC4)nc21 (stereo not drawn) [Compound 32],IC50,HPK1,4.52 nM
same,IC50,GLK,596 nM
"O=C1NCc2c(-c3cnc4cc(OC(F)F)ccn34)ccc(Nc3ccc4c(n3)C(NC3CC3)CC43CCOCC3)c21 (stereo not drawn) [Compound 178, 7-((7-(CYCLOPROPYLAMINO)-2′,3′,5′,6,6′,7-HEXAHYDROSPIRO[CYCLOPENTADIENYL[B]PYRIDINE-54′-PYRAN]-2-YL)AMINO)-4-(7-(DIFLUOROMETHOXY)IMIDAZO[1,2-A]PYRIDIN-3-YL)ISOINDOLIN-1-ONE]",IC50,HPK1,13.7 nM
same,IC50,GLK,1240 nM
CO[C@H]1CCN(C2CC3(CCOCC3)c3ccc(Nc4ccc(-c5cnc6cc(F)ccn56)c5c4C(=O)NC5)nc32)C1 (stereo partly drawn) [Compound 76],IC50,HPK1,3.55 nM
same,IC50,GLK,286 nM
"COc1ccn2c(-c3ccc(Nc4ccc5c(n4)C(N(C)C)CC54CCOC4)c4c3CNC4=O)cnc2c1 (stereo not drawn) [Compound 180, 7-((7-(DIMETHYLAMINO)-4′,5′,6,7-TETRAHYDRO-2′H-SPIRO[CYCLOPENTADIENYL[B]PYRIDINE-5,3′-FURAN]-2-YL)AMINO)-4-(7-METHOXYIMIDAZO[1,2-A]PYRIDIN-3-YL)ISOINDOLIN-1-ONE]",IC50,HPK1,13.9 nM
same,IC50,GLK,3910 nM
"CNC1CC2(CCOCC2)c2ccc(Nc3ccc(-c4cnc5cc(F)ccn45)c4c3C(=O)NC4)nc21 (stereo not drawn) [Compound 60, 4-(7-FLUOROIMIDAZO[1,2-A]PYRIDIN-3-YL)-7-((7-(METHYLAMINO)-2′,3′,5′,6,6′,7-HEXAHYDROSPIRO[B]PYRIDIN-5,4′-PYRAN]-2-YL)AMINO)ISOINDOL-1-ONE]",IC50,HPK1,2.14 nM
same,IC50,GLK,123 nM
O=C1NCc2c(-c3cnn4c3CCCC4)ccc(Nc3ccc4c(n3)CNCC43CCOCC3)c21 [Compound 154],IC50,HPK1,10.9 nM
same,IC50,GLK,646 nM
CN(C1CCOCC1)C1CC2(CCOCC2)c2ccc(Nc3ccc(-c4cnc5cc(F)ccn45)c4c3C(=O)NC4)nc21 (stereo not drawn) [Compound 93],IC50,HPK1,27 nM
same,IC50,GLK,> 25000 nM
CN(C)C1CC2(CCOCC2)c2ccc(Nc3ccc(-c4cnn5ccccc45)c4c3C(=O)NC4)nc21 (stereo not drawn) [Compound 37],IC50,HPK1,2.25 nM
same,IC50,GLK,158 nM
CC(C)NC1CC2(CCOCC2)c2ccc(Nc3ccc(-c4cnc5cc(OC(F)F)ccn45)c4c3C(=O)NC4)nc21 (stereo not drawn) [Compound 179],IC50,HPK1,8.85 nM
same,IC50,GLK,970 nM
CN(C)C1COC2(CCC2)c2ccc(Nc3ccc(-c4cnc5cc(F)ccn45)c4c3C(=O)NC4)nc21 (stereo not drawn) [Compound 173],IC50,HPK1,8.47 nM
same,IC50,GLK,3200 nM
O=C1NCc2c(-c3cnc4cc(F)ccn34)ccc(Nc3ccc4c(n3)CN(CC3CC3)CC43CCOCC3)c21 [Compound 120],IC50,HPK1,11 nM
same,IC50,GLK,> 3000 nM
CN(C)C1COC2(CCOCC2)c2ccc(Nc3ccc(-c4cnc5cc(Cl)ccn45)c4c3C(=O)NC4)nc21 (stereo not drawn) [Compound 86],IC50,HPK1,2.61 nM
same,IC50,GLK,158 nM
